Where two headings read alike, the source gives them in different places.
Columns and labels:
[1] = Phase II trial: adverse events (CTCAE v3.0); type: in vivo, human
Description: Ang-(1-7) was administered by subcutaneous injection once daily continuously. One cycle was defined as a 21-day period. Toxicities were assessed weekly during the first cycle and on the first day of each subsequent cycle. In the absence of unacceptable treatment-related toxicity, patients continued treatment until disease progression.
Two dose cohorts were planned. In the first cohort, twenty patients were treated at a dose of 20 mg daily which is similar to the weight-based dose of 400 mcg/kg identified as the MTD in the phase I study. Unlike the phase I study, this study utilized continuous daily dosing rather than five days every three weeks. A planned interim safety evaluation was performed after the enrollment of 10 patients in the first cohort. […] Patients in this cohort would have received Ang-(1-7) at a dose of 10 mg daily if excessive toxicities had been observed in the 20 mg cohort. Safety events that would trigger dose deescalation included 3 strokes in any cohort or other evidence of excessive toxicity.
Tumor measurements were performed using RECIST version 1.1 prior to initiation of treatment and then every two cycles until disease progression or unacceptable toxicity. Toxicities were graded using the Common Terminology Criteria for Adverse Events, version 3.0. […]

[2] = Plasma Ang-(1-7) concentration, radioimmunoassay; type: in vivo; conditions: human, sc, median, RIA, P < 0.05 vs baseline
Description: In the phase I trial, statistically significant changes in PlGF concentrations were identified 4 hours after the first Ang-(1-7) injection. To prospectively evaluate this biomarker, PlGF levels as well as VEGF, Ang-(1-7), Ang II, and Ang I were measured prior to the first dose, 4 hours after the first dose, and after 21 days of treatment in the phase II trial. Blood samples were immediately placed on ice and processed within 30 minutes of collection. For the angiotensin peptides, blood was taken in an EDTA containing tube with a cocktail of inhibitors to prevent in vitro generation or degradation of peptides, as previously described. Plasma samples were stored at −80°C. Concentrations of Ang-(1-7) (developed by laboratory), Ang II (Alpco, Windham, NH), and Ang I (Peninsula, San Carlos, CA) were measured by the Hypertension Core Facility of Wake Forest University using three established radioimmunoassay methods. Aliquots of plasma from the same time points were assayed by Aushon Biosystems (Billerica, MA) using Searchlight ELISA technology to quantify circulating vascular endothelial growth factor (VEGF) and placental growth factor (PlGF). […]
The study was designed with 87% power to detect a response rate by RECIST criteria of 10% in the study population. […] Levels of biomarker expression over time were evaluated using nonparametric, Wilcoxon signed rank tests. […]

[3] = phase I, ref [16], cited from earlier work
Source text: A phase I trial using subcutaneous administration of Ang-(1-7) for the treatment of patients with advanced solid tumors was previously reported. This study evaluated the maximum tolerated dose (MTD), toxicities, and pharmacokinetics of Ang-(1-7) when given subcutaneously once daily for five consecutive days on a 21-day cycle. This study identified 400 mcg/kg as the MTD for this schedule.

For `CC[C@H](C)[C@H](NC(=O)[C@H](Cc1ccc(O)cc1)NC(=O)[C@@H](NC(=O)[C@H](CCCNC(=N)N)NC(=O)[C@@H](N)CC(=O)O)C(C)C)C(=O)N[C@@H](Cc1c[nH]cn1)C(=O)N1CCC[C@H]1C(=O)O` [Ang-(1-7), Angiotensin-(1-7)], the “deaths on study or within 30 days of completing treatment” value ([1]; 20 patients, all attributed to progressive cancer, felt unrelated to treatment) was “Three”, the pregnancy outcome ([1]; in vivo) was “delivered a healthy child” and the level at 4 h ([2]; 4 hours after first dose, 20 mg s.c.) was 0.0611 ng/mL. The level at 528 h ([2]; day 22, 20 mg daily s.c.) was 0.0412 ng/mL, the “serious adverse event at least possibly related” value (“serious adverse event” for short) ([3]; 400 mcg/kg dose level) was “deep vein thrombosis” and the “half-life at the MTD” value ([3]; 400 mcg/kg s.c., considerable intra- and interpatient variability) was 36 min. The “serious adverse event” value ([3]; 700 mcg/kg dose level (first event named)) was “stroke”, the “serious adverse event” value ([3]; 700 mcg/kg dose level (second event named)) was “cranial neuropathy” and the “maximum tolerated dose (MTD)” value ([3]; s.c. once daily for five consecutive days on a 21-day cycle, advanced solid tumors) was 0.4 mg/kg.
